We go through three molecules from US20050260637A1, “Drug screening” (priority 2004, published 2005).

Like-named read-outs stand apart in the source and are kept apart here.

Data set [1] addresses T1, p53R2/M1 (p53R2 and hRRM1 reconstituted RNR) (Homo sapiens, UniProt Q7LG56).
T1 construct: 6xHis; made in house
T1 sequence (Q7LG56 1-351): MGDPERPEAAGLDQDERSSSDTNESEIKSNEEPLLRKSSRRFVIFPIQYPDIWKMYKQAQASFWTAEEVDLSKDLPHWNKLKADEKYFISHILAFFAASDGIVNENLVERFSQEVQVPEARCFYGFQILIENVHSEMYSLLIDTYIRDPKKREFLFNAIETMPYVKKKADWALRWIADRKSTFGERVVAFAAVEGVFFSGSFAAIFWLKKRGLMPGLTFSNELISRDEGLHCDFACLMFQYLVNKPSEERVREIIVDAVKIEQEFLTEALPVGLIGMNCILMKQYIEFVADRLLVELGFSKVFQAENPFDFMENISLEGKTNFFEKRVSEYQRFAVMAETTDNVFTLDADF
As to the kind of experiment: In vitro RNR activity assay with reconstituted p53R2/hRRM1 ([3H]CDP reduction). In kind it is biochemical. Conditions: read-out: In vitro RR activity (IC50 ± sd) p53R2/M1. How it is done:
(§1) To reconstitute an active RNR, three 6′His-tag human RNR subunit proteins (hRRM2, p53R2, and hRRM1) were prokaryotically expressed, purified using Ni-resin affinity chromatography, and stored in 50 mM Tris-HCl, pH 7.4, 100 mM KCl at −70° C. according to standard techniques. The purified proteins were subjected to SDS-PAGE analysis. […] To reconstitute RNR, 1 μM of hRRM2 or p53R2 protein was incubated with 0.5 μM hRRM1 protein in multiple-well plates. The reconstitute RNR was tested for RNR activity according to standard techniques.
(§2) Each compound of various concentration was mixed with the purified hRRM2 and hRRM1, or p53R2 and hRRM1 at room temperature for 30 minutes. An enzymatic reaction buffer was then added to the mixture to reach a final volume of 100 μl and incubated at 37° C. for 30 minutes. The reaction buffer contained […] [^3H] CDP, 50 mM HEPES pH 7.2,6 mM DTT, 4 mM MgOAC, 2 mM ATP, 0.05 mM CDP, 100 mM KCl, and 0.24 mM NADPH. […] FeCl3 could be added to the buffer as an iron source. After dephosphorylation, the supernatant of each reaction mixture was analyzed by an HPLC-connected radioactivity detector. IC50 values were calculated by the non-linear regression equations: f (x)=(a-d)/[1+(x/c)^b]+d.

In data set [2] the test system is tyrosyl radicals of both RNR small subunits (hRRM2, p53R2). In words: EPR spectroscopy of tyrosyl radical after incubation with compound. It is filed as biochemical, human. Conditions: protein incubated with compound at room temperature for 30 minutes; EPR at 20 K. How it is done:
Electron paramagnetic resonance (EPR) spectroscopy was then conducted. Prior to EPR, protein samples were incubated with each of the above-described compounds at room temperature for 30 minutes. EPR parameters were set as following: T=20 K, microwave frequency=9.376 GHz, microwave power=0.5 mW, modulation amplitude 4 gauss, modulation frequency 100 KHz. […] The EPR analysis was conduced in the presence of irons and the reductants.

Data set [3] addresses T2, M2/M1 (hRRM2 and hRRM1 reconstituted RNR) (Homo sapiens, UniProt P31350).
T2 construct: 6xHis; made in house
T2 sequence (P31350 1-389): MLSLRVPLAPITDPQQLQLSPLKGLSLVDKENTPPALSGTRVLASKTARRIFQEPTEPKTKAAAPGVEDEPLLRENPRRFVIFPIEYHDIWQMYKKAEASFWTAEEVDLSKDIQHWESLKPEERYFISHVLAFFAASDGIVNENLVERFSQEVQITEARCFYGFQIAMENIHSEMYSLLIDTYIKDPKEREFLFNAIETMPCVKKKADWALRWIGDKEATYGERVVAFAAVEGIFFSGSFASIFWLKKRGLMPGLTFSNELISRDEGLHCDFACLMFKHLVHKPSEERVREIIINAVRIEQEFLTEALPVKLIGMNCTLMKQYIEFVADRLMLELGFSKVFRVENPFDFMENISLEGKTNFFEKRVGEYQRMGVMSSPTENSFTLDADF
In words: In vitro RNR activity assay with reconstituted hRRM2/hRRM1 ([3H]CDP reduction). Conditions: read-out: In vitro RR activity (IC50 ± sd) M2/M1. It is filed as biochemical. How it is done: as §1, §2

Data set [4] has as its system T3, RNR containing hRRM2 or p53R2.
T3 construct: In vitro RR activity (IC50) Average; other: compound in 1% DMSO; average of M2/M1 and p53R2/M1; other: compound in 2.5% DMSO; other: compound in dH2O + FeCl3; other: compound in dH2O; Inhi; fused on or other part: 6xHis tag on each subunit
As to the kind of experiment: In vitro RNR activity assay, both reconstituted RNRs compared (average, selective index, comparison in words). In kind it is biochemical, human. The following applies: for IC50: average of M2/M1 and p53R2/M1, read-out: In vitro RR activity (IC50) Average. How it is done: as §1, §2
The above-described four SB-HSCs were tested for their inhibitory potency and subunit-selectivity by the in vitro RNR assay in the same manner descried above. The dose-dependent inhibition curves were found.

For data set [5], the target named is T4, human RNR (Homo sapiens, UniProt P23921).
T4 sequence (P23921 1-792): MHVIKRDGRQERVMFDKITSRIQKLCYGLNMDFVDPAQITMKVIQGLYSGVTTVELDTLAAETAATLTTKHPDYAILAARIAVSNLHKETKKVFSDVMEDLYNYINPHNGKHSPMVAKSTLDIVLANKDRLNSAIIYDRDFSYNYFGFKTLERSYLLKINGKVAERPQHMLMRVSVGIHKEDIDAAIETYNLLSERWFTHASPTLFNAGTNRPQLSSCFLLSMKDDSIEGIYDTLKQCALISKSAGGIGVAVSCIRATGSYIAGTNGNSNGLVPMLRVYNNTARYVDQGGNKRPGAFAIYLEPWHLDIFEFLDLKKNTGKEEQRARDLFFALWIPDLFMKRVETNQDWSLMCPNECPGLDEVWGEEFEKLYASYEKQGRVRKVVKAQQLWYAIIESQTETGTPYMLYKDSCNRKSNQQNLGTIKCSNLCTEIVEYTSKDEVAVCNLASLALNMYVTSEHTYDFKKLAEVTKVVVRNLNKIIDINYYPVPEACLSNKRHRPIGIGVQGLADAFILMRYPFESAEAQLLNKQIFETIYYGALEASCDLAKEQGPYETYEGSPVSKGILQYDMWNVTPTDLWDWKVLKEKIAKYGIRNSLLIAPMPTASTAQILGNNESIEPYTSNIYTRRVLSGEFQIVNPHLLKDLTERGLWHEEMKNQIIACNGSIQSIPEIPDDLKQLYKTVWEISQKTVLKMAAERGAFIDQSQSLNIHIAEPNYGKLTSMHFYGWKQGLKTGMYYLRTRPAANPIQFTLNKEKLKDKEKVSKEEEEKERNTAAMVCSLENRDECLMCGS
In words: C-terminal RRM2 peptide added to the enzyme in vitro. It is filed as biochemical. The following applies: added in vitro at a ratio of 10:1 (peptide:enzyme). From the text:
Also within the scope of this invention is a pharmaceutical composition that contains (1) an active agent, e.g., one of the above-descried antibodies, RNR mutant subunits, RNAi agents, or compounds identified to be RNR inhibitors; and (2) a pharmaceutically acceptable carrier and. Other active agents that can be used include an antisense oligonucleotide and a peptide or polypeptide containing an amino acid sequence at the C-terminus of RRM2. […] It was further observed that a truncated form of the M2 subunit, lacking these 7 amino acids at the C-terminus, fails to form a complex with the corresponding large subunit M1. […] Such peptides or polypeptides can be generated and used according to the methods described above or any other methods well known in the art. The efficacy of the pharmaceutical composition for treating a cell proliferation-associated disorder can be preliminarily evaluated in vitro. For in vivo studies, the composition can be injected into an animal and its therapeutic effects are then accessed.

Data set [6] has as its target T5, p53R2/hRRM1 (Homo sapiens, UniProt Q7LG56, Y124W).
T5 construct: 6xHis; made in house; host or cells: E. coli BL21(DE3), pET-p53R2 template
T5 sequence (Q7LG56 1-351 Y124W): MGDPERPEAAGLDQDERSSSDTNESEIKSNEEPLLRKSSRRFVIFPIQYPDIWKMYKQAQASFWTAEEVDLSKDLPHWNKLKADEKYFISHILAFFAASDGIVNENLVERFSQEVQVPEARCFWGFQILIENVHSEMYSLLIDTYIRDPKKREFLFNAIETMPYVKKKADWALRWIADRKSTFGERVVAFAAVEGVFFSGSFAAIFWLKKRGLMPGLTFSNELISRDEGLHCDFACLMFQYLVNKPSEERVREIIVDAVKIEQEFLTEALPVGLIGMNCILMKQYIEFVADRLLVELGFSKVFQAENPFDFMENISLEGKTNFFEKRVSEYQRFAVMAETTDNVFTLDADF
As to the kind of experiment: RNR activity of mutated p53R2 proteins with hRRM1 (modified [3H]CDP reduction assay). It is filed as biochemical. How it is done:
The activities of hRRM2/hRRM1 and p53R2/hRRM1 were measured using a modified [^3H] CDP reduction assay. The reaction mixture contained 0.125 μM [^3H] CDP (0.3 μCi), 50 mM of HEPES (pH 7.2), 6 mM DTT, 4 mM MgOAC, 2 mM ATP, 0.05 mM CDP, 100 mM KCl, 0.24 mM NADPH. The enzyme activity was measured in the presence of 0.5 μM of M1 protein and 1 μM of hRRM2 or p53R2 proteins with a total sample volume of 100 μl. After incubation at 37° C. for 15-30 minutes and dephosphorylation with phosphodiesterase, the supernatant was analyzed by HPLC using a C-18 reversed phase column to separate [^3H] cytidine and [^3H] deoxycytidine. Radioactivity of the HPLC aliquots was measured with a β-RAM-2B Flow-through radioisotope beta/gamma detector (IN/US Systems, Tampa, Fla.). The enzyme activity was measured as relative activity of dCDP/(CDP+dCDP)% (i. e., the percentage of dCDP of all ribonucleoside diphosphates and deoxyribonucleoside diphosphates). Results were normalized against those of wild type proteins, which were considered having 100% conversion of CDP to dCDP. Each value is the average of two to three determinations with deviations <0.3%.

`NC(=O)NO` [HU, Hydroxyurea]: the IC50 was determined as 159 ± 6.82 µM in data set [1] (compound in 1% DMSO); 146 ± 6.06 µM in data set [1] (compound in 2.5% DMSO); 1990 ± 71.2 µM in data set [1] (compound in dH2O + FeCl3); 190 ± 6.43 µM in data set [1] (compound in dH2O); 148 ± 7.34 µM in data set [3] (compound in 1% DMSO); 155 ± 6.59 µM in data set [3] (compound in 2.5% DMSO). Further, the IC50 amounted to 556 ± 24.1 µM in data set [3] (compound in dH2O + FeCl3); 165 ± 7.95 µM in data set [3] (compound in dH2O); 153 µM in data set [4] (compound in 1% DMSO); 150 µM in data set [4] (compound in 2.5% DMSO); 1270 µM in data set [4] (compound in dH2O + FeCl3); 178 µM in data set [4] (compound in dH2O). The “Quenching of tyrosyl radical EPR signal” value in data set [2] was “quenched the tyrosyl radicals of both RNR small subunits”. Moreover, in data set [4], the “Inhibition of reconstituted RNR activity (in words)” value is “significantly inhibited the activity of RNR containing hRRM2 or p53R2”.

Take “FTLDADF [7-amino acid peptide (FTLDADF) at the C-terminus of RRM2]”: the “Suppression of human RNR activity” value in data set [5] was “dramatically suppress the human RNR activity”.

B1: Y124W-p53R2: p53R2 mutant with Tyr124 replaced by tryptophan (SEQ ID NO: 19) (protein, listed as Homo sapiens)
chain: MGDPERPEAAGLDQDERSSSDTNESEIKSNEEPLLRKSSRRFVIFPIQYPDIWKMYKQAQASFWTAEEVDLSKDLPHWNKLKADEKYFISHILAFFAASDGIVNENLVERFSQEVQVPEARCFWGFQILIENVHSEMYSLLIDTYIRDPKKREFLFNAIETMPYVKKKADWALRWIADRKSTFGERVVAFAAVEGVFFSGSFAAIFWLKKRGLMPGLTFSNELISRDEGLHCDFACLMFQYLVNKPSEERVREIIVDAVKIEQEFLTEALPVGLIGMNCILMKQYIEFVADRLLVELGFSKVFQAENPFDFMENISLEGKTNFFEKRVSEYQRFAVMAETTDNVFTLDADF
As to B1, in data set [6], the “Enzyme activity retained, fraction of the wild type protein” value was 1/3.
